US20090082203A1, “INSECTICIDAL BIS(SUBSTITUTED PHENYL)-1-{[4-(SATURATED HETEROCYCLYL-SUBSTITUTED)PHENYLMETHYL]- (4-PIPERIDYL)}METHANE DERIVATIVES” (priority 2004, published 2009)

Tested on: tobacco budworm (Heliothis virescens [Fabricius])
Assay: surface-treated diet test against tobacco budworm
Type: in vivo
Details: 0.25 millimolar on the surface of the diet, second instar larvae, five-day exposure; for Percent Mortality: compared to the total number of insects infested; for Percent Growth Inhibition: inhibition of insect weight relative to untreated controls
Protocol: Candidate insecticides were evaluated for activity against the tobacco budworm (Heliothis virescens [Fabricius]) in a surface-treated diet test.
In this test one mL of molten (65-70° C.) wheat germ-based artificial diet was pipetted into each well of a four by six (24 well) multi-well plate (ID# 430345-15.5 mm dia.×17.6 mm deep; Corning Costar Corp., One Alewife Center, Cambridge, Mass. 02140). The diet was allowed to cool to ambient temperature before treatment with candidate insecticide.
For a determination of insecticidal activity, solutions of the candidate insecticides were prepared for testing using a Packard 204DT Multiprobe® Robotic System (Packard Instrument Company, 800 Research Parkway, Meriden, Conn. 06450), in which the robot first diluted a standard 50 millimolar DMSO solution of candidate insecticide with a 1:1 water/acetone solution (V/V) in a ratio of 1:7 stock solution to water/acetone. The robot subsequently pipetted 40 microliters of the so-prepared solution onto the surface of the diet in each of three wells in the 24 multi-well plate. The process was repeated with solutions of seven other candidate insecticides. Once treated, the contents of the multi-well plate were allowed to dry, leaving 0.25 millimoles of candidate insecticide on the surface of the diet, or a concentration of 0.25 millimolar. Appropriate untreated controls containing only DMSO on the diet surface were also included in this test.
For evaluations of the insecticidal activity of a candidate insecticide at varying rates of application, the test was established as described above using sub-multiples of the standard 50 millimolar DMSO solution of candidate insecticide. For example, the standard 50 millimolar solution was diluted by the robot with DMSO to give 5, 0.5, 0.05, 0.005, 0.0005 millimolar, or more dilute solutions of the candidate insecticide. In these evaluations there were six replicates of each rate of application placed on the surface of the diet in the 24 multi-well plate, for a total of four rates of application of candidate insecticide in each plate.
In each well of the test plate was placed one second instar tobacco budworm larvae, each weighing approximately five milligrams. After the larvae were placed in each well, the plate was sealed with clear polyfilm adhesive tape. The tape over each well was perforated to ensure an adequate air supply. The plates were then held in a growth chamber at 25° C. and 60% relative humidity for five days (light 14 hours/day).
After the five-day exposure period insecticidal activity for each rate of application of candidate insecticide was assessed as percent inhibition of insect weight relative to the weight of insects from untreated controls, and percent mortality when compared to the total number of insects infested.
The test compounds of formula I are identified by numbers that correspond to those in Table 1.

Structure (SMILES)	Percent Mortality [%]	Percent Growth Inhibition [%]
[O-][N+]1(Cc2ccc(C3OCC=CCO3)cc2)CCC(C(O)(c2ccc(OC(F)(F)F)cc2)c2ccc(OC(F)(F)F)cc2)CC1 (centres unmarked) [Compound 63]	100	100
[O-][N+]1(Cc2ccc(C3(Cc4ccccc4)OCCO3)cc2)CCC(C(O)(c2ccc(OC(F)(F)F)cc2)c2ccc(OC(F)(F)F)cc2)CC1 (centres unmarked) [Compound 65]	67	100
OC(c1ccc(OC(F)(F)F)cc1)(c1ccc(OC(F)(F)F)cc1)C1CCN(Cc2ccc(C3(Cc4ccccc4)OCCO3)cc2)CC1 [Compound 66]	67	100
[O-][N+]1(Cc2ccc(C3(COc4ccccc4)OCCO3)cc2)CCC(C(O)(c2ccc(OC(F)(F)F)cc2)c2ccc(OC(F)(F)F)cc2)CC1 (centres unmarked) [Compound 67]	100	100
CC1CCOC(c2ccc(C[N+]3([O-])CCC(C(O)(c4ccc(OC(F)(F)F)cc4)c4ccc(OC(F)(F)F)cc4)CC3)cc2)O1 (centres unmarked) [Compound 68]	100	100
CC1(C)CCOC(c2ccc(CN3CCC(C(O)(c4ccc(OC(F)(F)F)cc4)c4ccc(OC(F)(F)F)cc4)CC3)cc2)O1 (centres unmarked) [Compound 69]	100	100
CC1(C)CCOC(c2ccc(C[N+]3([O-])CCC(C(O)(c4ccc(OC(F)(F)F)cc4)c4ccc(OC(F)(F)F)cc4)CC3)cc2)O1 (centres unmarked) [Compound 70]	100	100
CC(=O)N1CCSC1c1ccc(CN2CCC(C(O)(c3ccc(OC(F)(F)F)cc3)c3ccc(OC(F)(F)F)cc3)CC2)cc1 (centres unmarked) [Compound 71]	33	100
CCCC1COC(c2ccc(CN3CCC(C(O)(c4ccc(OC(F)(F)F)cc4)c4ccc(OC(F)(F)F)cc4)CC3)cc2)O1 (centres unmarked) [Compound 72]	100	100
CN(C)C(=O)N1CCSC1c1ccc(CN2CCC(C(O)(c3ccc(OC(F)(F)F)cc3)c3ccc(OC(F)(F)F)cc3)CC2)cc1 (centres unmarked) [Compound 73]	100	100
CCCC1COC(c2ccc(C[N+]3([O-])CCC(C(O)(c4ccc(OC(F)(F)F)cc4)c4ccc(OC(F)(F)F)cc4)CC3)cc2)O1 (centres unmarked) [Compound 74]	100	100
CC1(C)OCC(c2ccc(CN3CCC(C(O)(c4ccc(OC(F)(F)F)cc4)c4ccc(OC(F)(F)F)cc4)CC3)cc2)O1 (centres unmarked) [Compound 76]	100	100
CC1(C)OCC(c2ccc(C[N+]3([O-])CCC(C(O)(c4ccc(OC(F)(F)F)cc4)c4ccc(OC(F)(F)F)cc4)CC3)cc2)O1 (centres unmarked) [Compound 77]	100	100
CC1CC(C)(C)OC(c2ccc(CN3CCC(C(O)(c4ccc(OC(F)(F)F)cc4)c4ccc(OC(F)(F)F)cc4)CC3)cc2)O1 (centres unmarked) [Compound 78]	100	100
[O-][N+]1(Cc2ccc(C3OCCC(c4ccccc4)O3)cc2)CCC(C(O)(c2ccc(OC(F)(F)F)cc2)c2ccc(OC(F)(F)F)cc2)CC1 (centres unmarked) [Compound 79]	100	100
CC1CC(C)(C)OC(c2ccc(C[N+]3([O-])CCC(C(O)(c4ccc(OC(F)(F)F)cc4)c4ccc(OC(F)(F)F)cc4)CC3)cc2)O1 (centres unmarked) [Compound 80]	100	100
